{
  "source": "paper PMC7026418",
  "about": "“The kinase polypharmacology landscape of clinical PARP inhibitors” (Scientific Reports, 2020)",
  "test_in_all_cases": "biochemical",
  "set-up_in_all_cases": "DiscoveRx KINOMEscan active site-directed competition binding; percent of control kinase bound to immobilised ligand",
  "key": {"LKB1": {"target": "T1, LKB1 (Homo sapiens, UniProt Q15831)", "T1 construct": "gene STK11", "T1 sequence (Q15831 1-433)": "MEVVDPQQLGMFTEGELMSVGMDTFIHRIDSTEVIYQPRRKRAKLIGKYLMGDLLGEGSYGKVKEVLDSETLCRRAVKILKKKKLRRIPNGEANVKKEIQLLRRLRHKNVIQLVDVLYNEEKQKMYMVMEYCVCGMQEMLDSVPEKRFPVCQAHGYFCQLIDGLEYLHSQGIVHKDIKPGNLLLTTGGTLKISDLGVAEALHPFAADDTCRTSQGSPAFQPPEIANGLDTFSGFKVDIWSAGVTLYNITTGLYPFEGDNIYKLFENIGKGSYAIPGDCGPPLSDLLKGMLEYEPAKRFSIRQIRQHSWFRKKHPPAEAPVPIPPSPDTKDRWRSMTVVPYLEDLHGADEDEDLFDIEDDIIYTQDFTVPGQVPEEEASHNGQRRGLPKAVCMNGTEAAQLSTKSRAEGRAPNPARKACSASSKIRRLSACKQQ"}, "CDC2L1": {"target": "T2, CDC2L1 (Homo sapiens, UniProt P21127)", "T2 construct": "gene CDK11B"}, "PKN1": {"target": "PKN1 (Homo sapiens, UniProt Q16512)", "sequence (Q16512 whole entry)": "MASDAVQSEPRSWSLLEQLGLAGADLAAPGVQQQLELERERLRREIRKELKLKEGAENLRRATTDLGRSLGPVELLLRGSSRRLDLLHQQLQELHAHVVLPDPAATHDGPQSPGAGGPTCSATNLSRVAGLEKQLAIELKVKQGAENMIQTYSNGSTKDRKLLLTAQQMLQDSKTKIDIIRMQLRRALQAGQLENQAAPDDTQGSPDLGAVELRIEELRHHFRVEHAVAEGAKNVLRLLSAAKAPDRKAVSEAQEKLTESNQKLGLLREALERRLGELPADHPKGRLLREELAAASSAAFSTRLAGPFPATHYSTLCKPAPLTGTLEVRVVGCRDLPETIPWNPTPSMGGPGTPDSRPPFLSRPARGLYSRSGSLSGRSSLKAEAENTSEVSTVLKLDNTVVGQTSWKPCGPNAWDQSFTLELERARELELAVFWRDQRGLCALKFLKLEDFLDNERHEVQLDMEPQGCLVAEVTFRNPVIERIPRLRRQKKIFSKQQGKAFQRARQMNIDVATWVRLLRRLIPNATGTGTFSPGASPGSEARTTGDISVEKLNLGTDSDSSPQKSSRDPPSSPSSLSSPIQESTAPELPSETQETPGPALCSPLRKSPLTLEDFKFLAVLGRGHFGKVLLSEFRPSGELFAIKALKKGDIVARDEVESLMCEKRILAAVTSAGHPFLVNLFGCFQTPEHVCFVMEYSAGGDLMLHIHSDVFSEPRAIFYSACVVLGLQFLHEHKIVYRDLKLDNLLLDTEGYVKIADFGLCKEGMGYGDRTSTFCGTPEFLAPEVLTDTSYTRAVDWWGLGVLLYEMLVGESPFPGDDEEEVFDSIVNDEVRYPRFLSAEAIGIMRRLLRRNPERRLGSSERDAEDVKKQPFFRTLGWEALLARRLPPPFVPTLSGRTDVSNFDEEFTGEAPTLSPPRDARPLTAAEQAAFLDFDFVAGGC"}, "PIP5K2B": {"target": "T3, PIP5K2B (Homo sapiens, UniProt P78356)", "T3 construct": "gene PIP4K2B", "T3 sequence (P78356 1-416)": "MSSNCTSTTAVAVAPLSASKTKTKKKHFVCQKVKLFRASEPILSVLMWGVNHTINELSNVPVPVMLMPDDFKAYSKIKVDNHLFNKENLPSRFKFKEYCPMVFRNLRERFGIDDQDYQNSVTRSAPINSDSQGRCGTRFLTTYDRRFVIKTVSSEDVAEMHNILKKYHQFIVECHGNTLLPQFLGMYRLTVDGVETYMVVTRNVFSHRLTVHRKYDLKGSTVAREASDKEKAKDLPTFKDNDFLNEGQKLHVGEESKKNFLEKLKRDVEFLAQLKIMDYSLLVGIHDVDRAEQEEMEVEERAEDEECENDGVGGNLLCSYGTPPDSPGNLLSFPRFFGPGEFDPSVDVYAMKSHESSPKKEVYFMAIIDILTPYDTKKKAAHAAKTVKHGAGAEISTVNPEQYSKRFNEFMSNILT"}, "RET(V804M)": {"target": "RET(V804M) (Homo sapiens, UniProt P07949, V804M)", "sequence (P07949 whole entry V804M)": "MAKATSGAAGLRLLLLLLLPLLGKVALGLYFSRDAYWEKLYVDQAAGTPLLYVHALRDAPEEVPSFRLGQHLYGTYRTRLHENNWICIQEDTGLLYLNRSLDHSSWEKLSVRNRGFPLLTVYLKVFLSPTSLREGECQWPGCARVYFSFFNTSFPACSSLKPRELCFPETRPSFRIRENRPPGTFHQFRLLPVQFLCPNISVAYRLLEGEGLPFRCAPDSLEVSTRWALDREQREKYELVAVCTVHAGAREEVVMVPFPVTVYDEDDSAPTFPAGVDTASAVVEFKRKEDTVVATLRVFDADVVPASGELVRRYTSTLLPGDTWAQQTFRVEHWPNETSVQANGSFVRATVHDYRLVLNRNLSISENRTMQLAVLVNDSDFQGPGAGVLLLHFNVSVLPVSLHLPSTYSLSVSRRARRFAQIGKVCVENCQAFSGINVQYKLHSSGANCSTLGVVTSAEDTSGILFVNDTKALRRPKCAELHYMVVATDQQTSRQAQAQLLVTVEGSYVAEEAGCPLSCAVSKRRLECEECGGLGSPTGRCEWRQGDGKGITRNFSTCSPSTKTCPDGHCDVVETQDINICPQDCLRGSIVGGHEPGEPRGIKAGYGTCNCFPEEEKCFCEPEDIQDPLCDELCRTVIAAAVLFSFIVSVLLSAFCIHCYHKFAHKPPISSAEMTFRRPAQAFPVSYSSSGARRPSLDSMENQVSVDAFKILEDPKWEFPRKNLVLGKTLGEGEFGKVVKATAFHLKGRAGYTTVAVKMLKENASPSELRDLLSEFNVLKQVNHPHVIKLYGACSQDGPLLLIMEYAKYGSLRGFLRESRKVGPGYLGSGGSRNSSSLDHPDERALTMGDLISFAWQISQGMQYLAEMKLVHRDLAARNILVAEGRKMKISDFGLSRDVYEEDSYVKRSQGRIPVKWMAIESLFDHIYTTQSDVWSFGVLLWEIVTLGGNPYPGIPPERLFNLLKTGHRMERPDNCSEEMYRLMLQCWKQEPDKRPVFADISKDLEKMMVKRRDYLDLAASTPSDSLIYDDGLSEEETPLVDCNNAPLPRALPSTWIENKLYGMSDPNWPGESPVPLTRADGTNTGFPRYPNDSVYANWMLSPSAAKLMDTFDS"}, "EGFR": {"target": "EGFR (Homo sapiens, UniProt P00533)", "sequence (P00533 whole entry)": "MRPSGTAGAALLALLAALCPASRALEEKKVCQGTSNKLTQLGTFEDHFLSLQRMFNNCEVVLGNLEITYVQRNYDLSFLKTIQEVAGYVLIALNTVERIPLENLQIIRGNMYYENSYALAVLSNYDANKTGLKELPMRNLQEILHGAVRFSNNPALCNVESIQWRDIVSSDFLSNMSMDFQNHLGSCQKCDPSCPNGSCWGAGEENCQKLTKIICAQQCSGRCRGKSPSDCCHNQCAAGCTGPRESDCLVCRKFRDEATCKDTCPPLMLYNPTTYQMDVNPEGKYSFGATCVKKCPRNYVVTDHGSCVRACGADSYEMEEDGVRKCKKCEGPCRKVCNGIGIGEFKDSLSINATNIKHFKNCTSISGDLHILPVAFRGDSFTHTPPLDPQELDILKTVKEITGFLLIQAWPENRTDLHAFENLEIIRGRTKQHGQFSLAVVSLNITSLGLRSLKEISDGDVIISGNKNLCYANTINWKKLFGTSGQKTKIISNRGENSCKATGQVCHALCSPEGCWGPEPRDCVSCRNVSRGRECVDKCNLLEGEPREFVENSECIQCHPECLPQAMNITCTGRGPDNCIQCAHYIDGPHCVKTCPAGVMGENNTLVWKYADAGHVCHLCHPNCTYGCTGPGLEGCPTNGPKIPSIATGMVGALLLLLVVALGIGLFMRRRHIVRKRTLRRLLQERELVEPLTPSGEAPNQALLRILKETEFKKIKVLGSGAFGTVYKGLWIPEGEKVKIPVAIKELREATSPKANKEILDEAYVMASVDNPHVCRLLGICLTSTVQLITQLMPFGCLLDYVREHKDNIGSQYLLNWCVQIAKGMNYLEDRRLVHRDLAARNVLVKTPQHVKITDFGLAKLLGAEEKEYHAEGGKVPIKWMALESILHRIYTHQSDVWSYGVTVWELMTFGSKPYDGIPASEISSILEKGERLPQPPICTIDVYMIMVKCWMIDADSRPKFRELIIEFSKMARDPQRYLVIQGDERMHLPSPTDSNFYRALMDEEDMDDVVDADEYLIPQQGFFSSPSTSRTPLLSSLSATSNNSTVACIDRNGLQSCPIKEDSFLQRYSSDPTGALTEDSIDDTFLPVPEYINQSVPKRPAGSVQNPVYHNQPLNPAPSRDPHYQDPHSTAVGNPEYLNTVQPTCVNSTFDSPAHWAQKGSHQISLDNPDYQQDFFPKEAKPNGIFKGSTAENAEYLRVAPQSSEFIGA"}, "[1]": {"target": "T4, RSK4(Kin.Dom.1-N-terminal) (Homo sapiens, UniProt Q9UK32)", "T4 construct": "gene RPS6KA6; Kin.Dom.1-N-terminal"}, "PIP5K1C": {"target": "PIP5K1C (Homo sapiens, UniProt O60331)", "sequence (O60331 whole entry)": "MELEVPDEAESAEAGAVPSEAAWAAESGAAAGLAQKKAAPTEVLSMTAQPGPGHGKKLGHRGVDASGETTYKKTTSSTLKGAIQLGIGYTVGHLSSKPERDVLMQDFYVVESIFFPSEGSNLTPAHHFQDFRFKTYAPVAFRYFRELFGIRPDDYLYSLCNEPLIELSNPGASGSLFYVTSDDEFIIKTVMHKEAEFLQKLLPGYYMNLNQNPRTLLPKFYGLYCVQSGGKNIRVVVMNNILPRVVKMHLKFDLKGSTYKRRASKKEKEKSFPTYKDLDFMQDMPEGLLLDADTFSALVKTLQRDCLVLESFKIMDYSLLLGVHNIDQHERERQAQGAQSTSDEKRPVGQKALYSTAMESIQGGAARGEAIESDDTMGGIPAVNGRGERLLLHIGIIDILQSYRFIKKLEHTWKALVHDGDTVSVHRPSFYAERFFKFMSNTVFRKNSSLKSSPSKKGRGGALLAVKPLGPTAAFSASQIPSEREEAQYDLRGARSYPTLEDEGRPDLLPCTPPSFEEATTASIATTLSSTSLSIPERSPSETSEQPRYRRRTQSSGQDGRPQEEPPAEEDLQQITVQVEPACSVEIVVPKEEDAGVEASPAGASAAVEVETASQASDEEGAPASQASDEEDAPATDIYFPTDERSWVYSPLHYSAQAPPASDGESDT"}, "PAK4": {"target": "PAK4 (Homo sapiens, UniProt O96013)", "sequence (O96013 whole entry)": "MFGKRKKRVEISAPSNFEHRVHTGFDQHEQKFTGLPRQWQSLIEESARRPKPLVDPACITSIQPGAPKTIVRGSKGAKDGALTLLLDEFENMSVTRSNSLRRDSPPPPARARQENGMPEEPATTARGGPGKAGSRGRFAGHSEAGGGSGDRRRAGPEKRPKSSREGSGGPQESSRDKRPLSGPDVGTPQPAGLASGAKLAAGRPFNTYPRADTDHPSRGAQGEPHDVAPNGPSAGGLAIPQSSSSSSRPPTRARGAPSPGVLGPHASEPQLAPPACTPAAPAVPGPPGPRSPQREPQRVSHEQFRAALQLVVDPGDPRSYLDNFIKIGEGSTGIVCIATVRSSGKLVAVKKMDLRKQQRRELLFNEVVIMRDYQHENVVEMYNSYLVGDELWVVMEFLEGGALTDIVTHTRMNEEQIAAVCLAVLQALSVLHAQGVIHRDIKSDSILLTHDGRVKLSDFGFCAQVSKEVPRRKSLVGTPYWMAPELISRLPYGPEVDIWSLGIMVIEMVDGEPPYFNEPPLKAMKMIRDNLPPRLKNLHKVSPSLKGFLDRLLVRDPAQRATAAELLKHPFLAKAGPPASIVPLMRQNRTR"}, "RET(M918T)": {"target": "RET(M918T) (Homo sapiens, UniProt P07949, M918T)", "sequence (P07949 whole entry M918T)": "as the sequence (P07949 whole entry V804M) above, with M804V, M918T counted along it"}, "SgK110": {"target": "T5, SgK110 (Homo sapiens, UniProt P0C264)", "T5 construct": "gene SBK3", "T5 sequence (P0C264 1-359)": "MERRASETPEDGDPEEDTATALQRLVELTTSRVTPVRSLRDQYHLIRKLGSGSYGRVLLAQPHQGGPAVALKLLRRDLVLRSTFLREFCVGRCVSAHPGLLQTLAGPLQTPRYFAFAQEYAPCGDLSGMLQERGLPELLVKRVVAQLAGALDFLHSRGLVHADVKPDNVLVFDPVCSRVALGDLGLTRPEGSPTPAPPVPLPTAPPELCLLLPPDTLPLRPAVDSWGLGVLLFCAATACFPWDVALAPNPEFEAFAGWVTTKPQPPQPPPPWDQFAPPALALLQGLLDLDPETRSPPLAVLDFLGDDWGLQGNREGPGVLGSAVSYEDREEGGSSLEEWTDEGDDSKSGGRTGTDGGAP"}, "[2]": {"conditions": "read-out: Talazoparib (BMN 673) / %Ctrl @ 10000nM"}, "[3]": {"conditions": "read-out: Olaparib / %Ctrl @ 10000nM"}, "[4]": {"conditions": "read-out: Rucaparib / %Ctrl @ 10000nM, binding competition, % of control"}, "[5]": {"conditions": "read-out: Niraparib (MK-4827) / %Ctrl @ 10000nM"}},
  "note": "Read-outs that look alike come from different tables or passages of the source.",
  "data": [
    {"molecule": "Cn1ncnc1[C@H]1c2n[nH]c(=O)c3cc(F)cc(c23)N[C@@H]1c1ccc(F)cc1", "note": "[Talazoparib]", "values": [
      {"measurement": "percent of control binding at 10 µM", "setting": "LKB1; [2]", "value": 93, "unit": "%"},
      {"measurement": "percent of control binding at 10 µM", "setting": "CDC2L1; [2]", "value": 100, "unit": "%"},
      {"measurement": "percent of control binding at 10 µM", "setting": "PKN1; [2]", "value": 74, "unit": "%"},
      {"measurement": "percent of control binding at 10 µM", "setting": "PIP5K2B; [2]", "value": 92, "unit": "%"},
      {"measurement": "percent of control binding at 10 µM", "setting": "RET(V804M); [2]", "value": 97, "unit": "%"},
      {"measurement": "percent of control binding at 10 µM", "setting": "EGFR; [2]", "value": 85, "unit": "%"},
      {"measurement": "percent of control binding at 10 µM", "setting": "[1]; [2]", "value": 99, "unit": "%"},
      {"measurement": "percent of control binding at 10 µM", "setting": "PIP5K1C; [2]", "value": 100, "unit": "%"},
      {"measurement": "percent of control binding at 10 µM", "setting": "PAK4; [2]", "value": 89, "unit": "%"},
      {"measurement": "percent of control binding at 10 µM", "setting": "RET(M918T); [2]", "value": 96, "unit": "%"},
      {"measurement": "percent of control binding at 10 µM", "setting": "SgK110; [2]", "value": 100, "unit": "%"}
    ]},
    {"molecule": "O=C(c1cc(Cc2n[nH]c(=O)c3ccccc23)ccc1F)N1CCN(C(=O)C2CC2)CC1", "note": "[Olaparib]", "values": [
      {"measurement": "percent of control binding at 10 µM", "setting": "LKB1; [3]", "value": 90, "unit": "%"},
      {"measurement": "percent of control binding at 10 µM", "setting": "CDC2L1; [3]", "value": 99, "unit": "%"},
      {"measurement": "percent of control binding at 10 µM", "setting": "PKN1; [3]", "value": 83, "unit": "%"},
      {"measurement": "percent of control binding at 10 µM", "setting": "PIP5K2B; [3]", "value": 96, "unit": "%"},
      {"measurement": "percent of control binding at 10 µM", "setting": "RET(V804M); [3]", "value": 90, "unit": "%"},
      {"measurement": "percent of control binding at 10 µM", "setting": "EGFR; [3]", "value": 82, "unit": "%"},
      {"measurement": "percent of control binding at 10 µM", "setting": "[1]; [3]", "value": 76, "unit": "%"},
      {"measurement": "percent of control binding at 10 µM", "setting": "PIP5K1C; [3]", "value": 100, "unit": "%"},
      {"measurement": "percent of control binding at 10 µM", "setting": "PAK4; [3]", "value": 100, "unit": "%"},
      {"measurement": "percent of control binding at 10 µM", "setting": "RET(M918T); [3]", "value": 100, "unit": "%"},
      {"measurement": "percent of control binding at 10 µM", "setting": "SgK110; [3]", "value": 63, "unit": "%"}
    ]},
    {"molecule": "CNCc1ccc(-c2[nH]c3cc(F)cc4c3c2CCNC4=O)cc1", "note": "[Rucaparib]", "values": [
      {"measurement": "percent of control binding at 10 µM", "setting": "LKB1; [4]", "value": 91, "unit": "%"},
      {"measurement": "percent of control binding at 10 µM", "setting": "CDC2L1; [4]", "value": 99, "unit": "%"},
      {"measurement": "percent of control binding at 10 µM", "setting": "PKN1; [4]", "value": 78, "unit": "%"},
      {"measurement": "percent of control binding at 10 µM", "setting": "PIP5K2B; [4]", "value": 87, "unit": "%"},
      {"measurement": "percent of control binding at 10 µM", "setting": "RET(V804M); [4]", "value": 99, "unit": "%"},
      {"measurement": "percent of control binding at 10 µM", "setting": "EGFR; [4]", "value": 87, "unit": "%"},
      {"measurement": "percent of control binding at 10 µM", "setting": "[1]; [4]", "value": 63, "unit": "%"},
      {"measurement": "percent of control binding at 10 µM", "setting": "PIP5K1C; [4]", "value": 100, "unit": "%"},
      {"measurement": "percent of control binding at 10 µM", "setting": "PAK4; [4]", "value": 80, "unit": "%"},
      {"measurement": "percent of control binding at 10 µM", "setting": "RET(M918T); [4]", "value": 97, "unit": "%"},
      {"measurement": "percent of control binding at 10 µM", "setting": "SgK110; [4]", "value": 63, "unit": "%"}
    ]},
    {"molecule": "NC(=O)c1cccc2cn(-c3ccc([C@@H]4CCCNC4)cc3)nc12", "note": "[Niraparib]", "values": [
      {"measurement": "percent of control binding at 10 µM", "setting": "LKB1; [5]", "value": 100, "unit": "%"},
      {"measurement": "percent of control binding at 10 µM", "setting": "CDC2L1; [5]", "value": 100, "unit": "%"},
      {"measurement": "percent of control binding at 10 µM", "setting": "PKN1; [5]", "value": 69, "unit": "%"},
      {"measurement": "percent of control binding at 10 µM", "setting": "PIP5K2B; [5]", "value": 80, "unit": "%"},
      {"measurement": "percent of control binding at 10 µM", "setting": "RET(V804M); [5]", "value": 79, "unit": "%"},
      {"measurement": "percent of control binding at 10 µM", "setting": "EGFR; [5]", "value": 67, "unit": "%"},
      {"measurement": "percent of control binding at 10 µM", "setting": "[1]; [5]", "value": 100, "unit": "%"},
      {"measurement": "percent of control binding at 10 µM", "setting": "PIP5K1C; [5]", "value": 83, "unit": "%"},
      {"measurement": "percent of control binding at 10 µM", "setting": "PAK4; [5]", "value": 88, "unit": "%"},
      {"measurement": "percent of control binding at 10 µM", "setting": "RET(M918T); [5]", "value": 95, "unit": "%"},
      {"measurement": "percent of control binding at 10 µM", "setting": "SgK110; [5]", "value": 84, "unit": "%"}
    ]}
  ]
}
